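Five compound concentrations were applied to cells in 96-well plates for 48 hours; endpoints were derived by simple linear interpolation of the resulting dose-response curve. TGI denotes the concentration required for complete inhibition of growth.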
What was measured:
Test in all cases: inhibition of tumour cell growth, NCI panel, 48 h
A549 NSCLC = tested on: A549 NSCLC
CAKI-1 renal = tested on: CAKI-1 renal
HCT-116 colon = tested on: HCT-116 colon
HOP-92 NSCLC = tested on: HOP-92 NSCLC
HS 578T breast = tested on: HS 578T breast
KM12 colon = tested on: KM12 colon
LOX IMVI melanoma = tested on: LOX IMVI melanoma
M14 melanoma = tested on: M14 melanoma
NCI-H226 lung = tested on: NCI-H226 lung
NCI/ADR-RES ovarian = tested on: NCI/ADR-RES ovarian
OVCAR-3 ovarian = tested on: OVCAR-3 ovarian
RPMI-8226 leukemia = tested on: RPMI-8226 leukemia
SF-268 CNS = tested on: SF-268 CNS
SK-MEL-28 melanoma = tested on: SK-MEL-28 melanoma
SK-MEL-5 melanoma = tested on: SK-MEL-5 melanoma
SR leukemia = tested on: SR leukemia
T-47D breast = tested on: T-47D breast
TK-10 renal = tested on: TK-10 renal
UACC-62 melanoma = tested on: UACC-62 melanoma
MCF7 breast = tested on: MCF7 breast

| Compound | TGI (A549 NSCLC) [µM] | TGI (CAKI-1 renal) [µM] | TGI (HCT-116 colon) [µM] | TGI (HOP-92 NSCLC) [µM] | TGI (HS 578T breast) [µM] | TGI (KM12 colon) [µM] | TGI (LOX IMVI melanoma) [µM] | TGI (M14 melanoma) [µM] | TGI (NCI-H226 lung) [µM] | TGI (NCI/ADR-RES ovarian) [µM] | TGI (OVCAR-3 ovarian) [µM] | TGI (RPMI-8226 leukemia) [µM] | TGI (SF-268 CNS) [µM] | TGI (SK-MEL-28 melanoma) [µM] | TGI (SK-MEL-5 melanoma) [µM] | TGI (SR leukemia) [µM] | TGI (T-47D breast) [µM] | TGI (TK-10 renal) [µM] | TGI (UACC-62 melanoma) [µM] | TGI (MCF7 breast) [µM] |
| --- | --- | --- | --- | --- | --- | --- | --- | --- | --- | --- | --- | --- | --- | --- | --- | --- | --- | --- | --- | --- |
| O=[N+]([O-])c1ccc(-c2nnc(C34CC5CC(CC(C5)C3)C4)o2)cc1 | > 100 | > 100 | > 100 | > 100 | > 100 | > 100 | > 100 | > 100 | > 100 | > 100 | > 100 | > 100 | > 100 | > 100 | > 100 | > 100 | > 100 | > 100 | > 100 |  |
| NC(=O)N/N=C1\CCCCc2ccccc21 | > 10 | > 10 | > 10 | > 10 |  | > 10 |  | > 10 | > 10 | > 10 | > 10 | > 10 | > 10 |  |  | > 10 | > 10 | > 10 |  | > 10 |
| CCOC(=O)C(=[N+]=[N-])C(=O)C1(C(=O)OCC)CCN(C(=O)c2ccccc2)C1=O (stereo not given) | > 100 | > 100 | > 100 | > 100 | > 100 | > 100 | > 100 | > 100 | > 100 | > 100 |  |  | > 100 |  | > 100 |  | > 100 | > 100 | > 100 | > 100 |
| COc1ccc(/C=C2\NC(=S)N(CN3CCCCC3)C2=O)cc1 | > 100 |  | > 100 | > 100 | 42 | > 100 | 93.3 | > 100 | > 100 | > 100 | > 100 | > 100 | 50.4 | > 100 | > 100 | > 100 |  | > 100 | > 100 | 61.1 |
| COCCN(C(C)=O)C1CCC2(SCCS2)c2[nH]c3ccccc3c21 (stereo not given) | > 100 | > 100 | > 100 | > 100 | > 100 | > 100 | > 100 |  | > 100 | > 100 | > 100 | > 100 | > 100 | > 100 | > 100 | > 100 |  | > 100 |  | > 100 |
| COc1cc(OC)c2c(c1)C(=O)C(CC(C)O)=CC2=O (stereo not given) | 37.1 | 34.3 | 25 | 23.3 |  | 35 | 19 | 32.9 | 35.4 |  | 18.3 | 46.4 | 33 | 31.5 | 28 | 7.44 |  | 34.1 | 25.8 |  |
| CC(NNC(=O)c1ccncc1)c1ccc(F)cc1 (stereo not given) | > 100 | > 100 | > 100 | > 100 | > 100 | > 100 | > 100 | > 100 | > 100 | > 100 | > 100 |  | > 100 | > 100 | > 100 |  | > 100 | > 100 | > 100 | > 100 |
| ONc1ncnc2nc[nH]c12 | > 100 | > 100 | > 100 | > 100 |  | > 100 |  | > 100 | > 100 |  | > 100 | > 100 | > 100 | > 100 | > 100 | > 100 |  | > 100 | > 100 |  |
| Cc1c(/C=N/NC(=O)c2cc(Br)cc(Br)c2O)c(=O)n(-c2ccccc2)n1C | > 100 | 94.2 | > 100 | > 100 |  | > 100 | > 100 | > 100 | > 100 |  | 95.7 | > 100 | > 100 | 49.8 | > 100 |  |  | > 100 | 41.7 |  |
| COc1cccc(N=Cc2cc3cc(Br)ccc3nc2Cl)c1 | > 50 | > 50 | > 50 | > 50 | > 50 | > 50 | > 50 | > 50 | 25.7 | > 50 | > 50 | 41.6 | > 50 | > 50 | > 50 | 20.8 | > 50 |  |  |  |
| CCOP(=O)(OCC)C1CC(O)C(=O)N1 (stereo not given) | > 100 |  | > 100 |  | > 100 | > 100 | > 100 | > 100 | > 100 | > 100 | > 100 | > 100 | > 100 | > 100 | > 100 | > 100 |  | > 100 | > 100 | > 100 |
| N#CCc1nc2ccccc2c(=O)[nH]1 | > 100 | > 100 | > 100 | > 100 |  | > 100 | > 100 | > 100 | > 100 | > 100 | > 100 |  |  | > 100 | > 100 |  | > 100 | > 100 |  | > 100 |
| O=C(/C=C(\O)c1ccccc1)C(=O)NNc1ccc([N+](=O)[O-])cc1[N+](=O)[O-] | 34.1 | 43.1 | 27.4 |  |  | 33.7 | 64.3 | 31.3 | 50.4 | 36.6 |  | 82.4 | 37.8 | 60.8 | 60.1 | 43.6 | 48.5 | 49 | 31.1 | > 100 |
| O=[N+]([O-])c1ccc(-c2csc3nc(-c4ccccc4)nn23)cc1 | > 100 | > 100 | > 100 | > 100 | > 100 | > 100 | > 100 | > 100 | > 100 | > 100 | > 100 | > 100 | > 100 | > 100 | > 100 | > 100 |  | > 100 | > 100 | > 100 |
| N=c1c2c(C(N)=O)cn(C3OC(CO)C(O)C3O)c2ncn1O (stereo not given) | 2.11 | 0.399 | 0.596 | > 100 | 7.91 | 0.753 | 0.438 | 0.506 | 1.57 | 0.447 | 0.943 |  |  | 2.3 | 0.174 | 0.234 | 3.69 | 0.426 | 0.283 |  |
| CCCNC(=O)c1cc(NC(=O)c2cc(NC(=O)/C=C/c3ccccc3)c(OC)c(OC)c2)c(OC)c(OC)c1 | 23.9 |  | > 100 |  | 6.18 | 41.8 | 8.35 | > 100 | 0.17 | 56 | 17.9 | > 100 | 8.68 | 67.7 |  | > 100 |  | 40.1 | 0.597 | 28.5 |
| Cc1csc(=S)n1OC(=O)NC1CCCCC1 | > 100 | > 100 | 96.8 | > 100 |  | > 100 | > 100 | > 100 | > 100 |  | > 100 | > 71.8 | > 100 | > 69.7 | > 100 | 47.3 |  | > 100 | > 67.2 |  |
| CC(=O)OCOC(=O)CN(CC(=O)OCOC(C)=O)Cc1cc2c(cc1OC(C)=O)Oc1cc(OC(C)=O)c(CN(CC(=O)OCOC(C)=O)CC(=O)OCOC(C)=O)cc1C21OC(=O)c2ccccc21 | 4.82 | 6.77 | 1.5 | 3.06 | 1.59 |  | 1.29 | 3.68 | 2.86 | 75 | 2.98 |  | 4.22 | 1.76 | 2.12 |  | 4.21 | 3 | 1.19 | 7.73 |
| COc1cc(/C=C/C(=O)c2ccc(NS(=O)(=O)c3cc([N+](=O)[O-])ccc3C)cc2)cc(OC)c1OC | 18.6 | 17.3 | 6.49 | 11.5 |  | 8.02 | 9.36 | 15.3 | 8.74 | > 100 | 11.5 | 6.21 |  | 25 | 15.4 | 5.74 | 38.6 | 13.9 |  | 9.72 |
| CCOC(=O)c1c(N2CCCC2)nsc1Nc1ccc(F)cc1 | > 100 | > 100 | > 100 | 95.7 | > 100 | > 100 | > 100 | > 100 | > 100 | > 100 | > 100 | > 100 | > 100 | > 100 | 34.3 | > 100 | 46 | > 100 | > 100 |  |
| COC(=O)C(CC12CC3CC(CC(C3)C1)C2)NC(=O)C(N)CC(=O)O (stereo not given) | > 100 | > 100 | > 100 | > 100 | > 100 | > 100 |  |  |  | > 100 |  | > 100 | > 100 | > 100 | > 100 | > 100 | > 100 | > 100 | > 100 |  |
| O=C1C(Br)=CC2(C=C1Br)CCNC1=C2C(=O)c2ccccc2C1=O | > 100 | 72.4 | 17.6 |  |  | 23.4 | 17.2 | 69.3 |  |  | > 100 | 41 | 63.3 |  | 28.5 |  |  | 83.4 | 29.6 |  |
| NC1CC(=O)c2sc(I)cc21 (stereo not given) | > 100 | > 100 | > 100 |  |  | > 100 |  | > 100 |  | > 100 | > 100 | > 100 | > 100 | > 100 | > 100 | > 100 | > 100 | > 100 | > 100 | > 100 |
| CCN(CC)CCCNc1nc(=O)[nH]c(C)c1C(=O)Nc1cccc2cc3ccccc3cc12 | > 100 | > 100 | > 100 | > 100 |  | > 100 | > 100 | > 100 | > 100 | > 100 | > 100 | > 100 |  | > 100 | > 100 |  | > 100 | > 100 | > 100 | > 100 |
| O=S(=O)(O)c1ccc(O)c2ncc(Cl)cc12 | > 100 | > 100 | > 100 | > 100 |  | > 100 | > 100 | > 100 | > 100 | > 100 | > 100 | > 100 |  | > 100 | > 100 | > 100 | > 100 |  | > 100 | > 100 |
| O=[N+]([O-])C(C(Cl)=C(Cl)Cl)=C(N(Cc1ccccc1)Cc1ccccc1)N(Cc1ccccc1)Cc1ccccc1 | > 100 | > 100 | > 100 | 57.1 | > 100 | > 100 | > 100 | > 100 | > 100 | > 100 | > 100 |  | > 100 | > 100 | > 100 |  | > 100 | > 100 | > 100 | > 100 |
| O=C(c1cccc2ccccc12)C1(Br)S(=O)(=O)OCCOS1(=O)=O | > 100 | > 100 | > 100 |  |  | > 100 | > 100 | > 100 |  | > 100 | > 100 | > 100 |  | > 100 | > 100 | > 100 |  | > 100 |  | > 100 |

Source: PubChem BioAssay (NCI)
